From patent publication US4001248A, “N-cycloalkylmethyl decahydroisoquinolines” (Eli Lilly and Company, priority 1974, dated 1977)
Values joined by “and” are separate entries in the source; they are usually repeats but may differ in a detail not shown here. Identical values can stand only once. Counter-ions that a name gives are not always drawn. Like-named read-outs stand apart in the source and are kept apart here.

Legend:
[1] = system: writhing in mice induced by the intraperitoneal injection of acetic acid; experiment: mouse-writhing test (inhibition of writhing induced by intraperitoneal acetic acid); assay type: in vivo; conditions: for % Inhibition: reading at 0.5 hours; for ED50: Mus musculus, read-out: Median inhibiting dose (I.D.50)
Text: In the Table, column 1 gives the name of the compund; column 2, the dosage in mg./kg. of mouse weight; column 3, the route of administration of the drug ("S.C." is subcutaneous and "or" is oral); and column 4, the percent inhibition found at the particular dose level. […] Median inhibiting doses (I.D.50) are also included in the Table.

[2] = system: morphine induced Straub tail; experiment: blocking of morphine induced Straub tail in mice; assay type: in vivo; conditions: 50 mg./kg. subcutaneous, morphine 40 mg./kg. subcutaneous
Method: In this assay, a 40 mg./kg. dose of morphine was administered to mice 15 minutes prior to assay, and the test drug at various intervals before assay. Trans-dl-1 -cyclopropylmethyl-3a-(m-hydroxyphenyl)-1,2,3,3a,4,5,6,7,7a,8-decahydroisoquinoline maleate gave a 100 percent block of the Straubed tail effected by a subcutaneous injection of 40 mg./kg. of morphine when the test drug was given at a dose of 50 mg./kg. subcutaneously 15 minutes prior to assay, and 80 percent when given 30 minutes prior to assay. The l(-) isomer gave 100 percent blocking on the morphine-induced Straub tail at 50 and 20 mg./kg. doses 15 and 30 minutes before assay.

[3] = system: rat tail jerk; experiment: rat tail jerk assay (increase in reaction time over control); assay type: in vivo
Text: The compounds of this invention are also active in the rat tail jerk assay, another standard pharmacologic test for analgesic activity of the opiate-type. Such activity is manifested as an increase in the reaction time of the animal in removing (jerking) its tail from a nearby heat stimulus (a resistance wire) after drug administration compared to control time (no drug administered). Table 2 which follows gives the increased reaction times over control times produced by the compounds of this invention when administered subcutaneously. In Tables 2 and 3, column 1 gives the name of the compound; column 2, the dose; column 3, time of observation after administration of the drug; column 4, the increase in reaction time above control in seconds; and column 5, the level of significance of the results ("p" value). […] All drugs were administered as aqueous solutions. More than one value for a given dose level indicates multiple determinations. The results are not averaged.

[4] = system: morphine; experiment: modified rat tail jerk assay, antagonism of morphine; assay type: in vivo, rats; conditions: for minimal effective dose: Rattus norvegicus, morphine 5 mg./kg. subcutaneous
Method: The ability of the compounds of this invention to antagonize the action of morphine, an opiate, is shown by the following modification of the aforementioned rat tail jerk assay: The standard assay procedure is used with the exception that a 7 amps. current is used instead of a 6 amps. current in the hot wire to decrease the measurable agonist effects of the antagonist. The drugs under test are then administered to groups of rats at different dose levels at different times prior to test, with a 5 mg./kg. dose of morphine invariably being administered 10 minutes prior to test. Positive evidence of antagonism is a decreased reaction time over that to be expected from the morphine. […] Among the compounds of this invention, those in which R in Structure I is cyclopropylmethyl are the preferred antagonists, showing activity in the above test procedure. […] In a series of determinations, it was ascertained that the minimum subcutaneous dose necessary to reduce the analgesic effects of a 5 mg./kg. subcutaneous dose of morphine was in the range 2.5-5.0 mg./kg. and the minimum oral dose, 5-10 mg./kg.

Oc1cccc([C@]23CCCC[C@@H]2CN(CC2CC2)CC3)c1 (stereo in doubt) [Trans-dl-1-cyclopropylmethyl-3a-(m-hydroxyphenyl)-1,2,3,3a,4,5,6,7,7a,8-decahydroisoquinoline maleate]
% Inhibition ([1]; 2 mg./kg. S.C.): 6% | % Inhibition ([1]; 5 mg./kg. S.C.): 66% | % Inhibition ([1]; 10 mg./kg. S.C.): 72% | % Inhibition ([1]; 20 mg./kg. S.C.): 99% | % Inhibition ([1]; 20 mg./kg. oral): 46% | % Inhibition ([1]; 50 mg./kg. oral): 56% | % Inhibition ([1]; 100 mg./kg. S.C.): 100% | % Inhibition ([1]; 100 mg./kg. oral): 92% | ED50 ([1]; sc, S.C.): 2 to 5 mg/kg | ED50 ([1]; oral): 20 to 50 mg/kg | block of the Straubed tail ([2]; 15 minutes prior): 100% | block of the Straubed tail ([2]; 30 minutes prior): 80% | Increase in Reaction Time Over Control ([3]; oral, 5 mg./kg., 15 min): 0 s | Increase in Reaction Time Over Control ([3]; oral, 10 mg./kg., 15 min): .90 s | Increase in Reaction Time Over Control ([3]; oral, 15 mg./kg., 15 min): .95 s | Increase in Reaction Time Over Control ([3]; oral, 20 mg./kg., 30 min): 1.17 s | Increase in Reaction Time Over Control ([3]; oral, 20 mg./kg., 45 min): 1.33 s | Increase in Reaction Time Over Control ([3]; oral, 25 mg./kg., 15 min): 2.10 s | Increase in Reaction Time Over Control ([3]; oral, 25 mg./kg., 30 min): .30 s | Increase in Reaction Time Over Control ([3]; oral, 50 mg./kg., 10 min): 2.83 s and 2.73 s and 2.88 s | Increase in Reaction Time Over Control ([3]; oral, 50 mg./kg., 15 min): 4.25 s and 4.92 s and 5.08 s | Increase in Reaction Time Over Control ([3]; oral, 50 mg./kg., 60 min): 2.42 s | Increase in Reaction Time Over Control ([3]; oral, 50 mg./kg., 90 min): 1.38 s | Increase in Reaction Time Over Control ([3]; oral, 50 mg./kg., 120 min): 1.17 s | Increase in Reaction Time Over Control ([3]; oral, 100 mg./kg., 5 min): .55 s | Increase in Reaction Time Over Control ([3]; oral, 100 mg./kg., 10 min): 2.45 s | Increase in Reaction Time Over Control ([3]; oral, 100 mg./kg., 15 min): 4.85 s and 7.46 s and 4.50 s | Increase in Reaction Time Over Control ([3]; oral, 100 mg./kg., 15 min, 20 sec. cut off): 5.45 s | Increase in Reaction Time Over Control ([3]; oral, 100 mg./kg., 30 min): 3.45 s and 4.05 s and 6.79 s and 4.38 s | Increase in Reaction Time Over Control ([3]; oral, 100 mg./kg., 60 min): 2.05 s | Increase in Reaction Time Over Control ([3]; oral, 200 mg./kg., 15 min, 20 sec. cut off): 7.25 s and 7.13 s | Increase in Reaction Time Over Control ([3]; oral, 200 mg./kg., 30 min): 2.75 s and 1.42 s | Increase in Reaction Time Over Control ([3]; oral, 200 mg./kg., 45 min): 5.79 s | Increase in Reaction Time Over Control ([3]; oral, 300 mg./kg., 15 min): 7.75 s | Increase in Reaction Time Over Control ([3]; subcutaneous, 0.5 mg./kg., 15 min): .75 s | Increase in Reaction Time Over Control ([3]; subcutaneous, 1 mg./kg., 15 min): .50 s | Increase in Reaction Time Over Control ([3]; subcutaneous, 2 mg./kg., 15 min): 2.21 s | Increase in Reaction Time Over Control ([3]; subcutaneous, 3 mg./kg., 15 min): 2.04 s | Increase in Reaction Time Over Control ([3]; subcutaneous, 7 mg./kg., 15 min): 4.25 s | Increase in Reaction Time Over Control ([3]; subcutaneous, 20 mg./kg., 15 min): 5.17 s and 3.70 s | Increase in Reaction Time Over Control ([3]; subcutaneous, 25 mg./kg., 15 min): 4.40 s | Increase in Reaction Time Over Control ([3]; subcutaneous, 30 mg./kg., 15 min, 20 sec. cut off): 4.25 s | Increase in Reaction Time Over Control ([3]; subcutaneous, 40 mg./kg., 15 min): 3.90 s | Increase in Reaction Time Over Control ([3]; subcutaneous, 50 mg./kg., 5 min, 15 sec. cut off): 4.85 s | Increase in Reaction Time Over Control ([3]; subcutaneous, 50 mg./kg., 10 min, 15 sec. cut off): 4.95 s | Increase in Reaction Time Over Control ([3]; subcutaneous, 50 mg./kg., 10 min, 20 sec. cut off): 4.85 s | Increase in Reaction Time Over Control ([3]; subcutaneous, 50 mg./kg., 15 min): 4.0 s and 5.98 s | Increase in Reaction Time Over Control ([3]; subcutaneous, 50 mg./kg., 15 min, 15 sec. cut off): 6.50 s | Increase in Reaction Time Over Control ([3]; subcutaneous, 50 mg./kg., 15 min, 20 sec. cut off): 6.08 s | Increase in Reaction Time Over Control ([3]; subcutaneous, 50 mg./kg., 30 min): 5.75 s | Increase in Reaction Time Over Control ([3]; subcutaneous, 50 mg./kg., 30 min, 15 sec. cut off): 5.10 s | Increase in Reaction Time Over Control ([3]; subcutaneous, 50 mg./kg., 45 min): 3.00 s | Increase in Reaction Time Over Control ([3]; subcutaneous, 50 mg./kg., 90 min): 1.85 s | Increase in Reaction Time Over Control ([3]; subcutaneous, 50 mg./kg., 120 min): 2.45 s | Increase in Reaction Time Over Control ([3]; subcutaneous, 50 mg./kg., 180 min): 1.80 s | Increase in Reaction Time Over Control ([3]; subcutaneous, 60 mg./kg., 15 min, 20 sec. cut off): 4.40 s | Increase in Reaction Time Over Control ([3]; subcutaneous, 100 mg./kg., 15 min): 4.15 s | Increase in Reaction Time Over Control ([3]; subcutaneous, 200 mg./kg., 15 min): 5.65 s | blocking of the analgesic effect of morphine ([4]; 50 mg./kg. subcutaneous, 30 and 60 minutes prior, morphine 5 mg./kg.): very effectively blocked the analgesic effect of 5 mg./kg. of morphine | minimal effective dose ([4]; sc, subcutaneous, read-out: minimum subcutaneous dose necessary to reduce the analgesic effects of morphine): 2.5 to 5 mg/kg | minimal effective dose ([4]; oral, read-out: minimum oral dose necessary to reduce the analgesic effects of morphine): 5 to 10 mg/kg | antagonism of morphine ([4]; dose not stated): antagonizes the effects of morphine
